# Assay results taken from ChEMBL document CHEMBL3217568, “trans-Stilbenoids: potent and selective inhibitors for human cytochrome P450 1B1” (Medchemcomm, 2011).
# Legend:
# Homo sapiens [1] = organism: Homo sapiens; assay: Selectivity ratio of IC50 for human CYP1A1 to IC50 for human CYP1B1
# Homo sapiens [2] = organism: Homo sapiens; assay: Selectivity ratio of IC50 for human CYP1A2 to IC50 for human CYP1B1
# Cytochrome P450 1B1 [3] = target: T1, Cytochrome P450 1B1 (Homo sapiens, UniProt Q16678); assay: Inhibition of human CYP1B1 expressed in Escherichia coli assessed as changes in ethoxyresorufin O-deethylation activity after 3 mins by spectrofluorometer analysis
# T1 sequence (Q16678 whole entry): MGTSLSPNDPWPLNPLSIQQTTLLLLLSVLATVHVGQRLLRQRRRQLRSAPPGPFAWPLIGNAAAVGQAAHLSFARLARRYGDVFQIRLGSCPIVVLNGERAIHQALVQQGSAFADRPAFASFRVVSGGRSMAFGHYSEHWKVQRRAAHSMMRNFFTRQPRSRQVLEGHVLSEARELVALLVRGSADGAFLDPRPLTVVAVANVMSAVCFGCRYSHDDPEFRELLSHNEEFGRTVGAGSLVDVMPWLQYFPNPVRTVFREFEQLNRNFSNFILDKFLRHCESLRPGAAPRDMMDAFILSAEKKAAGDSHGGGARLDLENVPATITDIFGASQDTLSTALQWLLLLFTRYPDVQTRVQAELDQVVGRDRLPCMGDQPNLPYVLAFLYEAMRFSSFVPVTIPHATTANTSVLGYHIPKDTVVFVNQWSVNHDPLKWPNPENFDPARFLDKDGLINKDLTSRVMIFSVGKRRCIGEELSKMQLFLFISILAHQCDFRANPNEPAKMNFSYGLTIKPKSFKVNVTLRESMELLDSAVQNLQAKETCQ
# Cytochrome P450 1A2 = target: T2, Cytochrome P450 1A2 (Homo sapiens, UniProt P05177); assay: Inhibition of human CYP1A2 expressed in Escherichia coli assessed as changes in ethoxyresorufin O-deethylation activity after 3 mins by spectrofluorometer analysis; format: ADME
# T2 sequence (P05177 whole entry): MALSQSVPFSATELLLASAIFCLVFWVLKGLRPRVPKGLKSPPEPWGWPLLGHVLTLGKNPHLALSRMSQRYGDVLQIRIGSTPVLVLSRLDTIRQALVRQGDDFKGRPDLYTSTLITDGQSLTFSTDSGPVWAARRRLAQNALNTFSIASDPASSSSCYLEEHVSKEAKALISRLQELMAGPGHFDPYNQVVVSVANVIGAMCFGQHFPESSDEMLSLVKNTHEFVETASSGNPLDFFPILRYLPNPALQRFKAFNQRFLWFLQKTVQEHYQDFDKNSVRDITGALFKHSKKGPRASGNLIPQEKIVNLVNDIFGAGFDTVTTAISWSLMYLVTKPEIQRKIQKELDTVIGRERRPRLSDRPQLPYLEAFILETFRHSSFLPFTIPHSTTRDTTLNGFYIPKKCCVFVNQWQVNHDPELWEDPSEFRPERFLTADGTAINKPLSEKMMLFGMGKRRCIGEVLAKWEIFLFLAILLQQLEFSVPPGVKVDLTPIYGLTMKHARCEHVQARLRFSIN
# Cytochrome P450 1A1 [4] = target: T3, Cytochrome P450 1A1 (Homo sapiens, UniProt P04798); assay: Inhibition of human CYP1A1 expressed in Escherichia coli assessed as changes in ethoxyresorufin O-deethylation activity after 3 mins by spectrofluorometer analysis; format: ADME
# T3 sequence (P04798 whole entry): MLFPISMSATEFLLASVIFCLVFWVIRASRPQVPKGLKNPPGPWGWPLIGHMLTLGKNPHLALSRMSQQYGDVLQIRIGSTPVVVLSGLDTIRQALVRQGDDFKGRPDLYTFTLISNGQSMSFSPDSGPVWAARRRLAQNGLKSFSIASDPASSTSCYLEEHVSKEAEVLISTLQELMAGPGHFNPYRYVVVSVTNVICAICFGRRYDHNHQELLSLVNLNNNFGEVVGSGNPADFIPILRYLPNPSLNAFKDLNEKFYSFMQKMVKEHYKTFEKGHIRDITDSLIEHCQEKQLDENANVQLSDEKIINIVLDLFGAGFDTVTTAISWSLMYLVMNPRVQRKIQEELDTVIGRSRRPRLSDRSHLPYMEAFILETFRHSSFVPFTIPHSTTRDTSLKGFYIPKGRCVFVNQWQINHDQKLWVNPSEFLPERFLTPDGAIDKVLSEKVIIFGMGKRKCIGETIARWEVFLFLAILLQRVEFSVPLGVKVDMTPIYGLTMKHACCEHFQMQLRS
# Cytochrome P450 1B1 [5] = target: T1, Cytochrome P450 1B1; assay: Inhibition of CYP1B1 (unknown origin)
# Cytochrome P450 1A1 [6] = target: T3, Cytochrome P450 1A1; assay: Inhibition of CYP1A1 (unknown origin); format: ADME
IC50 (Cytochrome P450 1B1 [3]) [nM],IC50 (Cytochrome P450 1A2) [nM],IC50 (Cytochrome P450 1A1 [4]) [nM],SMILES,Ratio IC50 (Homo sapiens [1]),Ratio IC50 (Homo sapiens [2]),Ki (Cytochrome P450 1B1 [5]) [nM],Ki (Cytochrome P450 1A1 [6]) [nM]
5.46,236,78.4,COc1ccc(/C=C/c2cc(OC)c(OC)cc2OC)c(OC)c1,14,43,–,–
57.5,1060,666,COc1ccc(/C=C/c2ccc(OC)cc2OC)cc1,12,18,–,–
15.5,792,336,COc1ccc(/C=C/c2ccccc2OC)c(OC)c1,22,51,–,–
41.8,337,190,COc1ccc(/C=C/c2ccc(OC)c(OC)c2)c(OC)c1,4.6,8.1,–,–
71,4690,301,COc1ccc(/C=C/c2cc(OC)c(OC)c(OC)c2)c(OC)c1,4.2,66,–,–
8.81,204,222,COc1ccc(/C=C/c2ccc(OC)cc2OC)c(OC)c1,25,23,–,–
25,326,493,COc1ccc(/C=C/c2ccccc2)c(OC)c1,20,13,–,–
60.3,247,192,COc1ccc(/C=C/c2cccc(OC)c2OC)c(OC)c1,3.2,4.1,–,–

# Further lines, the compound ahead of its results:
SMILES,IC50 (Cytochrome P450 1B1 [3]) [nM],IC50 (Cytochrome P450 1A2) [nM],IC50 (Cytochrome P450 1A1 [4]) [nM],Ratio IC50 (Homo sapiens [1]),Ratio IC50 (Homo sapiens [2]),Ki (Cytochrome P450 1B1 [5]) [nM],Ki (Cytochrome P450 1A1 [6]) [nM]
COc1cc(/C=C/c2ccc(O)cc2)cc(OC)c1 [PTEROSTILBENE],–,–,–,–,–,900,570
COc1ccc(OC)c(/C=C/c2ccc(OC)cc2OC)c1,3.51,302,350,100,86,–,–
COc1ccc(/C=C/c2c(OC)ccc(OC)c2OC)c(OC)c1,3.3,1740,420,127,526,–,–
COc1ccc(/C=C/c2c(OC)cc(OC)cc2OC)c(OC)c1,4.93,188,148,30,38,–,–
COc1ccc(/C=C/c2c(OC)cccc2OC)c(OC)c1,1.77,170,350,194,95,–,–
COc1cccc(/C=C/c2ccc(OC)cc2OC)c1,15.2,903,98.2,6.5,59,–,–
COc1cc(O)cc(/C=C/c2ccc(O)cc2)c1,–,–,–,–,–,900,120
COc1ccc(/C=C/c2cc(O)cc(O)c2)cc1 [RESVERATROL 4'-METHYL ETHER],–,–,–,–,–,2100,160
